Results: ChEMBL document CHEMBL5543084, “Development of cannabidiol derivatives as potent broad-spectrum antibacterial agents with membrane-disruptive mechanism” (Eur J Med Chem, 2024)
Converted amounts (≈) assume the structure as drawn. The source made the active and inactive calls. No cut-off for these calls is given here.

Assays:
Staphylococcus aureus [1] = test: Antibacterial activity against Staphylococcus aureus ATCC 29213 assessed as inhibition of bacterial growth incubated for 24 hrs by broth dilution method; assay type: functional
Staphylococcus aureus [2] = test: Antibacterial activity against methicillin-resistant Staphylococcus aureus N315 assessed as inhibition of bacterial growth incubated for 24 hrs by broth dilution method; assay type: functional
Staphylococcus aureus [3] = test: Antibacterial activity against methicillin-resistant Staphylococcus aureus NCTC 10442 assessed as inhibition of bacterial growth incubated for 24 hrs by broth dilution method; assay type: functional
Klebsiella pneumoniae [4] = test: Antibacterial activity against Klebsiella pneumoniae ATCC 14581 assessed as inhibition of bacterial growth incubated for 24 hrs by broth dilution method; assay type: functional
Staphylococcus aureus [5] = test: Antibacterial activity against Staphylococcus aureus ATCC 29213 assessed as inhibition of bacterial growth incubated for 24 hrs in presence of 140 mM Na+ by broth dilution method; assay type: functional
Staphylococcus aureus [6] = test: Antibacterial activity against methicillin-resistant Staphylococcus aureus NCTC 10442 assessed as inhibition of bacterial growth incubated for 24 hrs in presence of 140 mM Na+ by broth dilution method; assay type: functional
Staphylococcus aureus [7] = test: Antibacterial activity against Staphylococcus aureus ATCC 29213 assessed as inhibition of bacterial growth incubated for 24 hrs in presence of 1 mM Mg2+ by broth dilution method; assay type: functional
Staphylococcus aureus [8] = test: Antibacterial activity against methicillin-resistant Staphylococcus aureus NCTC 10442 assessed as inhibition of bacterial growth incubated for 24 hrs in presence of 1 mM Mg2+ by broth dilution method; assay type: functional
Escherichia coli [9] = test: Antibacterial activity against Escherichia coli ATCC 25922 assessed as inhibition of bacterial growth incubated for 24 hrs in presence of 1 mM Mg2+ by broth dilution method; assay type: functional
Escherichia coli [10] = test: Antibacterial activity against Escherichia coli ATCC 25922 assessed as inhibition of bacterial growth incubated for 24 hrs in presence of 4.5 mM K+ by broth dilution method; assay type: functional
Klebsiella pneumoniae [11] = test: Antibacterial activity against Klebsiella pneumoniae ATCC 10031 assessed as inhibition of bacterial growth incubated for 24 hrs in presence of 19 uM Zn2+ by broth dilution method; assay type: functional
Escherichia coli [12] = test: Antibacterial activity against Escherichia coli ATCC 25922 assessed as inhibition of bacterial growth incubated for 24 hrs in presence of 20 uM Fe2+ by broth dilution method; assay type: functional
Staphylococcus aureus [13] = test: Antibacterial activity against methicillin-resistant Staphylococcus aureus NCTC 10442 assessed as inhibition of bacterial growth incubated for 24 hrs in presence of 20 uM Fe3+ by broth dilution method; assay type: functional
[14] = Cytotoxicity against mouse fibroblast NCTC clone 929 cells assessed as viable cells at […] microg/ml incubated for 24 hrs by CCK-8 assay; assay type: toxicity, cell-based; details: NCTC clone 929 (L929) fibroblast cells, dose 1.56 µg/ml, read-out: Activity
[15] = Cytotoxicity against mouse fibroblast NCTC clone 929 cells assessed as viable cells at 3.125 microg/ml incubated for 24 hrs by CCK-8 assay; assay type: toxicity, cell-based; details: NCTC clone 929 (L929) fibroblast cells, at 3.125 µg/mL, read-out: Activity
Escherichia coli [16] = test: Bactericidal activity against Escherichia coli ATCC 25922 assessed as bacterial reduction at 4 time of MIC concentration incubated for 2 hrs by time-kill assay; assay type: functional
Cell membrane = test: Induction of cytoplasmic membrane permeabilization in Pseudomonas aeruginosa ATCC 9027 assessed as disruption of cell membrane integrity measured upto 60 mins by measuring increase in fluorescence intensity at 1 to 8 times of MIC concentration by SYTOX green dye based fluorescence analysis; assay type: cell membranes
Lipoteichoic acid [17] = test: Displacement of BODIPY-TR-cadaverine from Bacillus subtilis lipoteichoic acid (LTA) assessed as increase in fluorescence intensity by fluorescence spectrophotometric analysis
Lipopolysaccharide (LPS) [18] = test: Displacement of BODIPY-TR-cadaverine from Escherichia coli lipopolysaccharide (LPS) assessed as increase in fluorescence intensity by fluorescence spectrophotometric analysis; assay type: subcellular
Lipopolysaccharide (LPS) [19] = test: Displacement of BODIPY-TR-cadaverine from Escherichia coli lipopolysaccharide (LPS) assessed as increase in fluorescence intensity at 1 times MIC measured after 30 mins by fluorescence spectrophotometric analysis; assay type: subcellular
Lipopolysaccharide (LPS) [20] = test: Displacement of BODIPY-TR-cadaverine from Escherichia coli lipopolysaccharide (LPS) assessed as increase in fluorescence intensity at 2 times MIC measured after 30 mins by fluorescence spectrophotometric analysis; assay type: subcellular
Lipoteichoic acid [21] = test: Displacement of BODIPY-TR-cadaverine from Bacillus subtilis lipoteichoic acid (LTA) assessed as increase in fluorescence intensity at 4 times MIC measured after 30 mins by fluorescence spectrophotometric analysis
Staphylococcus aureus [22] = test: Bactericidal activity against methicillin-resistant Staphylococcus aureus NCTC 10442 assessed as up-regulation of molecular functions related gene expression by measuring uracil DNA N-glycosylase activity (GO:0004844) at 4 times of MIC concentration measured after 90 mins incubation by RNA sequencing (RNA-seq) study; assay type: functional, organism-based
Staphylococcus aureus [23] = test: Bactericidal activity against methicillin-resistant Staphylococcus aureus NCTC 10442 assessed as down-regulation of biological processes related gene expression by measuring glutamate metabolic process (GO:0006536) at 4 times of MIC concentration measured after 90 mins incubation by RNA sequencing (RNA-seq) study; assay type: functional, organism-based
Staphylococcus aureus [24] = test: Bactericidal activity against methicillin-resistant Staphylococcus aureus NCTC 10442 assessed as down regulation of other glycan degradation gene expression at 4 times of MIC concentration measured after 90 mins incubation by RNA sequencing (RNA-seq) study; assay type: functional, organism-based
Staphylococcus aureus [25] = test: Bactericidal activity against methicillin-resistant Staphylococcus aureus NCTC 10442 assessed as up regulation of phosphonate and phosphinate metabolism gene expression at 4 times of MIC concentration measured after 90 mins incubation by RNA sequencing (RNA-seq) study; assay type: functional, organism-based
Escherichia coli [26] = test: Bactericidal activity against Escherichia coli ATCC 25922 assessed as down regulation of benzoate degradation gene expression at 4 times of MIC concentration measured after 90 mins incubation by RNA sequencing (RNA-seq) study; assay type: functional, organism-based
Escherichia coli [27] = test: Bactericidal activity against Escherichia coli ATCC 25922 assessed as down regulation of phenylalanine metabolism gene expression at 4 times of MIC concentration measured after 90 mins incubation by RNA sequencing (RNA-seq) study; assay type: functional, organism-based
Staphylococcus aureus [28] = test: Bactericidal activity against methicillin-resistant Staphylococcus aureus NCTC 10442 assessed as change in cell death associated gene expression by measuring down-regulation of biofilm formation plfA (DX983_RS01360) and plfB (DX983_RS01355) gene expression at 4 times of MIC concentration measured after 90 mins incubation by RNA sequencing (RNA-seq) study; assay type: functional, organism-based
Escherichia coli [29] = test: (§1) Bactericidal activity against Escherichia coli ATCC 25922 assessed as change in cell death associated gene expression by measuring down-regulation of outer membrane lipoprotein-coding gene (slp, D1792_ RS14130; porin, D1792_RS05555) gene expression at 4 times of MIC concentration measured after 90 mins incubation by RNA sequencing (RNA-seq) study; assay type: functional, organism-based
Escherichia coli [30] = test: as §1, with “UDP-glucose 4-epimerase (galE, D1792_RS06370)” for “outer membrane lipoprotein-coding gene (slp, D1792_ RS14130; porin, D1792_RS05555)”; assay type: functional, organism-based
Escherichia coli [31] = test: as §1, with “LPS export ABC transporter periplasmic-encoding” for “outer membrane lipoprotein-coding”, “(D1792_RS11370)” for “(slp, D1792_ RS14130; porin, D1792_RS05555)”; assay type: functional, organism-based
Escherichia coli [32] = test: Bactericidal activity against Escherichia coli ATCC 25922 assessed as change in metabolic stress associated gene expression by measuring down-regulation of gale (DX983_RS06370) gene expression at 4 times of MIC concentration measured after 90 mins incubation; assay type: functional, organism-based
[33] = Toxicity in C57BL6 mouse assessed as signs of toxicity treated in eyeballs 4 times in a day for 3 consecutive days; details: in vivo, topical_or_ocular

C=C(C)[C@@H]1CCC(C)=C[C@H]1c1c(OCCCNC(=N)N)cc(CCCCC)cc1OCCCNC(=N)N
MIC (Staphylococcus aureus [1]): 0.78 µg/mL (≈ 1.52 µM)
MIC (Staphylococcus aureus [2]): 0.39 µg/mL (≈ 0.761 µM)
MIC (Staphylococcus aureus [3]): 0.78 µg/mL (≈ 1.52 µM)
MIC (Klebsiella pneumoniae [4]): 1.56 µg/mL (≈ 3.04 µM)
MIC (Staphylococcus aureus [5]): 0.78 µg/mL
MIC (Staphylococcus aureus [6]): 0.39 µg/mL
MIC (Staphylococcus aureus [7]): 1.56 µg/mL
MIC (Staphylococcus aureus [8]): 0.39 µg/mL
MIC (Escherichia coli [9]): 1.56 µg/mL
MIC (Escherichia coli [10]): 1.56 µg/mL
MIC (Klebsiella pneumoniae [11]): 3.12 µg/mL
MIC (Escherichia coli [12]): 1.56 µg/mL
MIC (Staphylococcus aureus [13]): 0.39 µg/mL
viability at 24 h, 1.56 microg/ml [14]: 94%
viability at 24 h, 3.125 microg/ml [15]: 92.3%
Activity (Escherichia coli [16]): 5.52 log10FFU/ml
Activity (Cell membrane): Active
Activity (Lipoteichoic acid [17]): Dose-Dependent Effect
Activity (Lipopolysaccharide (LPS) [18]): Dose-Dependent Effect
Activity (Lipopolysaccharide (LPS) [19]): 27.7%
Activity (Lipopolysaccharide (LPS) [20]): 54%
Activity (Lipoteichoic acid [21]): 33.7%
Activity (Staphylococcus aureus [22]): Active
Activity (Staphylococcus aureus [23]): Active
Activity (Staphylococcus aureus [24]): Active
Activity (Staphylococcus aureus [25]): Active
Activity (Escherichia coli [26]): Active
Activity (Escherichia coli [27]): Active
Activity (Staphylococcus aureus [28]): Active
Activity (Escherichia coli [29]): Active
Activity (Escherichia coli [30]): Active
Activity (Escherichia coli [31]): Active
Activity (Escherichia coli [32]): Active
Activity [33]: Non-Toxic
